Reference: patent US5166374A, “Bile acid derivatives, processes for the preparation thereof and pharmaceutical compositions containing them” (Giuliani S.p.A., priority 1989, dated 1992)
In brackets after ≈: the same amount, converted by molar mass. Entries after “also recorded” stand apart in the source; their conditions may differ. Where two headings read alike, the source gives them in different places. One block for each molecule: values may come before it.

Key:
[1] = critical micellar pH (CMpH); type: physicochemical
Protocol: (§1) were evaluated according to conventional methods. Critical micellar concentration.

[2] = liver uptake, biliary secretion and metabolism after intravenous administration; type: in vivo
[3] = solubility in water; type: physicochemical; conditions: for solubility: water
[4] = system: bile flow; experiment: choleretic effect after i.v. or i.d. administration; type: in vivo
[5] = lipophilicity (K' from retention times on C18 HPLC); type: physicochemical; conditions: for rK' C-18 (relative values): Table III
Source text: K' = calculated from retention times (t) on C18 HPLC according to
where to = time of unretained solvent, under the following

[6] = intestinal absorption, biliary recovery and metabolism after intraduodenal administration; type: in vivo
[7] = critical micellar concentration (CMC), detergency; type: physicochemical
Protocol: -critical micellar concentration (CMC) or "detergency",
as §1
comparison with UDCA, GUDCA and TUDCA

[8] = acidity constant (pKa); type: physicochemical
Protocol: as §1

[9] = system: bile flow and biliary secretion; experiment: effect on bile flow and biliary lipid secretion when administered i.v. to rat; type: in vivo; conditions: for SMAB (mean maximum biliary secretion) / SMFL (mean maximum biliary lipid secretion) / SMVo (mean maximum bile flow) / SMxol (mean maximum biliary lipid secretion): rat, i.v., Table II
Source text: Effect of 24-ISOP on bile flow and biliary
SVo = mean maximum bile flow.
SM = mean maximum biliary lipid secretion.

[10] = Table I, calculated from retention times on C18 HPLC, CH3OH/KH2PO4 0.01 M 130/70 v/v, pH = 7, read-out: K' (converted)

SMILES: C[C@H](CCC(=O)CCC(=O)O)[C@H]1CC[C@H]2[C@@H]3[C@@H](O)C[C@@H]4C[C@H](O)CC[C@]4(C)[C@H]3CC[C@]12C [Example 24-ISOP, 3α, 7β-dihydroxy-24-oxo-5β-cholan-27-oic acid]
critical micellar pH (in words) [1]: low critical micellar pH; also recorded: soluble when present in micellar form at a pH lower than UDCA (low CMpH)
disappearance from bile ([2]; in vivo): disappears from bile with a kinetic similar to conjugate forms of UDCA and faster than UDCA
kinetic of the biliary secretion ([2]; in vivo, iv): very fast in comparison with UDCA and more similar to tauroursodeoxycholic acid
metabolites / conjugation ([2]; intravenous): no significant metabolites are present
recovery in bile ([2]; intravenous): completely recovered in bile with a rapid kinetic
solubility ([3]; Solubility): 20 µM (≈ 8.97 µg/mL)
choleretic effect [4]: high choleretic effect, higher than that of UDCA
chromatographic logD ([5]; c18 hplc, ch3oh/kh2po4, pH 7): 0.326
metabolites ([6]; in vivo): no major metabolites are present
recovery in bile ([6]; intraduodenal): significantly higher than that of glycoursodeoxycholic and similar to UDCA and TUDCA
CMC ([7]; Table I): 9 mM
pKa ([8]; pKa value): 4.2
effect on bile flow (in words) ([9]; intravenous): great effect on bile flow, higher than that of UDCA and its conjugated forms
transport and secretion of cholesterol and phospholipids (in words) ([9]; intravenous): no significative differences
SMAB (mean maximum biliary secretion) [9]: 2.62 µmol/min/kg
SMFL (mean maximum biliary lipid secretion) [9]: 0.21 µmol/min/kg
SMVo (mean maximum bile flow) [9]: 5.22 mL/h/kg
SMxol (mean maximum biliary lipid secretion) [9]: 0.020 µmol/min/kg

chromatographic logD [5, 10]: -0.00877
CMC ([7]; Table I): 8 mM
SMILES: C[C@H](CCC(=O)NCCS(=O)(=O)O)[C@H]1CC[C@H]2[C@@H]3[C@@H](O)C[C@@H]4C[C@H](O)CC[C@]4(C)[C@H]3CC[C@]12C [TUDCA, tauroursodeoxycholic acid]
SMAB (mean maximum biliary secretion) [9]: 3.40 µmol/min/kg
SMFL (mean maximum biliary lipid secretion) [9]: 0.18 µmol/min/kg
SMVo (mean maximum bile flow) [9]: 2.16 mL/h/kg
SMxol (mean maximum biliary lipid secretion) [9]: 0.014 µmol/min/kg

SMILES: C[C@H](CCC(=O)O)[C@H]1CC[C@H]2[C@@H]3[C@@H](O)C[C@@H]4C[C@H](O)CC[C@]4(C)[C@H]3CC[C@]12C [UDCA, ursodeoxycholic, reference compound]
metabolites / conjugation ([2]; in vivo, iv): completely transformed into its conjugated form, tauroursodexycholic acid and to less extent into glycoursodeoxycholic acid
solubility (in words) [3]: low solubility at low pH
solubility ([3]; Table III, read-out: water solubility): 19 µM (≈ 7.46 µg/mL)
solubility ([3]; Table I, read-out: Solubility): 9 µM (≈ 3.53 µg/mL)
chromatographic logD [5, 10]: 0.563
rK' C-18 (relative values) [5]: 0,4
CMC ([7]; Table I): 19 mM
CMC ([7]; Table III): 19 mM
pKa ([8]; Acidity constant, read-out: pKa value): 6
pKa ([8]; Table I): 5.06
pKa ([8]; Table III): 5
SMAB (mean maximum biliary secretion) [9]: 3.02 µmol/min/kg
SMFL (mean maximum biliary lipid secretion) [9]: 0.227 µmol/min/kg
SMVo (mean maximum bile flow) [9]: 3.6 mL/h/kg
SMxol (mean maximum biliary lipid secretion) [9]: 0.022 µmol/min/kg

SMILES: C[C@H](CCC(=O)NCC(=O)O)[C@H]1CC[C@H]2[C@@H]3[C@@H](O)C[C@@H]4C[C@H](O)CC[C@]4(C)[C@H]3CC[C@]12C [GUDCA, glycoursodeoxycholic acid]
solubility (in words) [3]: low solubility at low pH
solubility ([3]; Table I, read-out: Solubility): 3 µM (≈ 1.35 µg/mL)
chromatographic logD [5, 10]: 0.0253
CMC ([7]; Table I): 12 mM
SMAB (mean maximum biliary secretion) [9]: 2.10 µmol/min/kg
SMFL (mean maximum biliary lipid secretion) [9]: 0.39 µmol/min/kg
SMVo (mean maximum bile flow) [9]: 2.4 mL/h/kg
SMxol (mean maximum biliary lipid secretion) [9]: 0.028 µmol/min/kg

SMILES: C[C@H](CCC(=O)CCC(=O)O)[C@H]1CC[C@H]2[C@@H]3[C@@H](O)C[C@@H]4C[C@H](O)CC[C@]4(C)[C@H]3CC[C@]12C [Example 24-PUDCA]
solubility ([3]; water solubility): 13 µM (≈ 5.83 µg/mL)
rK' C-18 (relative values) [5]: 0,44
CMC ([7]; Table III): 9 mM
pKa ([8]; pKa): 3.9

SMILES: C[C@H](CCC(=O)O)[C@H]1CC[C@H]2[C@@H]3[C@@H](O)C[C@@H]4C[C@H](O)CC[C@]4(C)[C@H]3C[C@H](O)[C@]12C [UCA, ursocholic]
CMC ([7]; Table III): 60 mM

SMILES: C[C@H](CCC(=O)CCC(=O)O)[C@H]1CC[C@H]2[C@@H]3[C@@H](O)C[C@@H]4C[C@H](O)CC[C@]4(C)[C@H]3C[C@H](O)[C@]12C [Example 24-PUCA, 3α, 7β, 12α-Trihydroxy-24-oxo-5β-cholan-27-oic acid]
critical micellar pH (in words) [1]: low CMpH value
solubility (in words) [3]: very soluble also in protonated form
water solubility relative to UDCA and 24-PUDCA [3]: about 100 times
solubility ([3]; water solubility): 1800 µM (≈ 836 µg/mL)
lipophilicity (in words) [5]: intermediate between UCA and UDCA
rK' C-18 (relative values) [5]: 0,20
CMC / detergency (in words) [7]: mild detergency
CMC ([7]; Table III): 28 mM
pKa (in words) [8]: lower to than that of the natural analogues UCA and UDCA and similar to that of 24-PUDCA
pKa ([8]; pKa): 3.85
